# Patent publication US3965103A, “4-Nitroperhydropyrido[1,2-a][1,4]diazepines” (Schering Aktiengesellschaft, priority 1973, dated 1976)
# Where two headings read alike, the source gives them in different places.
# Tests used:
# Asp. fum. = experiment: Tube Dilution Test in liquid media; assay type: cell-based
# Source text: (§1) The above mentioned greater activity against dermatophytes, yeasts and other fungi compared to "Bronopol" is illustrated in Table 1:
# (§2) MIC (μg./ml.) in the Tube Dilution Test in liquid media
# Mucor. pus. = experiment: Tube Dilution Test in liquid media; assay type: cell-based
# Source text: as §1, §2
# Microsp. gypseum = experiment: Tube Dilution Test in liquid media; assay type: cell-based
# Source text: as §1, §2
# Paecilomyc. = experiment: Tube Dilution Test in liquid media; assay type: cell-based
# Source text: as §1, §2
# Trichoph. rubr. = experiment: Tube Dilution Test in liquid media; assay type: cell-based
# Source text: as §1, §2
# Trichoph. ment. = experiment: Tube Dilution Test in liquid media; assay type: cell-based
# Source text: as §1, §2
# Sacch. cer. = experiment: Tube Dilution Test in liquid media; assay type: cell-based
# Source text: as §1, §2
# Chaet. glob. = experiment: Tube Dilution Test in liquid media; assay type: cell-based
# Source text: as §1, §2
# Asp. flav. = experiment: Tube Dilution Test in liquid media; assay type: cell-based
# Source text: as §1, §2
# Pen. notat. = experiment: Tube Dilution Test in liquid media; assay type: cell-based
# Source text: as §1, §2
# Asp. nig. = experiment: Tube Dilution Test in liquid media; assay type: cell-based
# Source text: as §1, §2
# Candid. alb. = experiment: Tube Dilution Test in liquid media; assay type: cell-based
# Source text: as §1, §2
# bacteria = details: known from U.S. Pat. No. 3,558,788; cited from earlier work
# Fusar. = experiment: Tube Dilution Test in liquid media; assay type: cell-based
# Source text: as §1, §2
# [1] = Sacch. cer., tube dilution test, liquid media, read-out: MIC
Compound,MIC (Asp. fum.) [µg/mL],MIC (Mucor. pus.) [µg/mL],MIC (Microsp. gypseum) [µg/mL],MIC (Paecilomyc.) [µg/mL],MIC (Trichoph. rubr.) [µg/mL],MIC (Trichoph. ment.) [µg/mL],MIC (Sacch. cer.; [1]) [µg/mL],MIC (Chaet. glob.) [µg/mL],MIC (Asp. flav.) [µg/mL],MIC (Pen. notat.) [µg/mL],MIC (Asp. nig.) [µg/mL],MIC (Candid. alb.) [µg/mL],MIC (Sacch. cer.) [µg/mL],antibacterial activity (bacteria),MIC (Fusar.) [µg/mL]
"CN1CC2CCCCN2CC(Cc2ccccc2)([N+](=O)[O-])C1.Cl.Cl (centres unmarked) [4-Benzyl-2-methyl-4-nitroperhydropyrido[1,2-a] [1,4]-diazepine dihydrochloride]",31,8,8,16,2,4,4,63,63,125,125,4,–,–,–
"O=[N+]([O-])C(Br)(CO)CO [Bronopol, 2-bromo-2-nitropropane-1,3-diol, reference compound]",63,63,16,250,4,8,–,> 1000,> 1000,> 1000,> 1000,63,125,has antibacterial activity,–
"CCCCC1([N+](=O)[O-])CN(C)CC2CCCCN2C1.Cl.Cl (centres unmarked) [4-n-Butyl-2-methyl-4-nitroperhydropyrido[1,2-a] [1,4] diazepine dihydrochloride]",8,2,8,63,2,2,4,8,4,8,31,8,–,–,16
